The experiment addresses T1, human DGAT1 (Homo sapiens, UniProt O75907).
T1 construct: FLAG (N); made in house; host or cells: SF9 insect cells (pFastBac baculovirus); total cell membranes
T1 sequence (O75907 1-488): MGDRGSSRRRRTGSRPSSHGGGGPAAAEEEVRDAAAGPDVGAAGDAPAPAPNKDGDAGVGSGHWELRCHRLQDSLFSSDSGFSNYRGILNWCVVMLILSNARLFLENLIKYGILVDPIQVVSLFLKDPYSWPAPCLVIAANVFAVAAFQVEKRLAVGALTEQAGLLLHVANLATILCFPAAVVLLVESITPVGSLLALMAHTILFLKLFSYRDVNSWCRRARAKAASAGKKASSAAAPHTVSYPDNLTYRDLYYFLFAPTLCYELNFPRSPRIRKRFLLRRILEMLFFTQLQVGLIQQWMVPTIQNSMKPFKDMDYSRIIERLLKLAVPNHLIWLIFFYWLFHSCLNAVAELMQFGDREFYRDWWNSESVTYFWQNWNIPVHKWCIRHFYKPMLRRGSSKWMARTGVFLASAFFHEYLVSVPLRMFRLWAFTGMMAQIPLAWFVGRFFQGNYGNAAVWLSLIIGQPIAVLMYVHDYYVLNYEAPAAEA
In words: Inhibition of DGAT1 activity, FlashPlate assay with DGAT1 membrane preparations and substrate micelles. In kind it is biochemical. Conditions: pIC50 = -logIC50, IC50 values expressed in M. From the text: A) Measurement of Inhibition of DGAT1 Activity by the Present Compounds
The inhibiting activity of the present compounds on DGAT1 activity was screened in a single well procedure assay using DGAT1 comprising membrane preparations and DGAT1 substrate comprising micelles and determining formed radio-active triacylglycerol coming in close proximity of a flashplate surface by radio luminescence.
Said assay is described in full detail in WO2006/067071, the content of which is incorporated herein by reference.
By DGAT1 activity is meant the transfer of coenzyme A activated fatty acids to the 3-position of 1,2-diacylglycerols, thus forming a triglyceride molecule, by enzyme DGAT1.
human DGAT1 (NM012079.2) was cloned into the pFastBac vector, containing translation start, a FLAG-tag at the N-terminus as described in literature and a viral Kozak sequence (AAX) preceding the ATG to improve expression in insect cells. Expression was done as described in literature (Cases, S., Smith, S. J., Zheng, Y., Myers H. M., Lear, S. R., Sande, E., Novak, S., Collins, C., Welch, C. B., Lusis, A. J., Erickson, S. K. and Farese, R. V. (1998) Proc. Natl. Acad. Sci. USA 95, 13018-13023.) using SF9 cells.
72 h transfected SF9 cells were collected by centrifugation (13000 rpm-15 min-4° C.) and lysed in 2×500 ml lysisbuffer (0.1M Sucrose, 50 mM KCl, 40 mM KH2PO4, 30 mM EDTA pH 7.2. Cells were homogenized by cell disruptor. After centrifugation 1380 rpm-15 min-4° C. (SN discarded), pellet was resuspended in 500 ml lysisbuffer and total cell membranes collected by ultracentrifugation at 34000 rpm(100 000 g) for 60 min (4° C.). The collected membranes were resuspended in lysis buffer, divided in aliquots and stored with 10% glycerol at −80° C. until use.
Add 1 ml dioleoyl-sn-glycerol (10 mg/ml) to 10 ml of L-α-phosphatidylcholine (1 mg/ml) and 10 ml of L-α-phosphatidyl-L-serine (1 mg/ml) in a thick glass recipient. Evaporate under nitrogen and put on ice for 15 minutes. Reconstitute in 10 ml Tris/HCl (10 mM, pH 7.4) by sonication on ice. The sonification process consists of sonification cycles of 10 seconds in the sonification bath followed by 10 seconds cool down on ice and repeating this sonification cycle till a homogeneous solution is obtained (takes about 15 minutes). The thus obtained micelles are stored at −20° C. till later use and contain DAG at a final concentration of 1.61 mM.
c) Substrate mix (for 1 384 well plate=3840 μl) • 612 μl micelles stock (51 μM final) • 16.6 μl oleoylCoA 9.7 mM • 23 μl [^3H]-oleoylCoA (49 Ci/mmol, 500 μCi/ml) • 3188.4 μl Tris pH 7.4, 10 mM
d) Enzyme mix (for 1 384 well plate=3520 μl) (5 μg/ml) • Add 11.73 μl of DGAT membrane stock (1500 μg/ml stock) to 3508 μl assay buffer.
e) Stop mix (for 1 384 well plate=7.68 ml) (250 mM) • Add 384 μl of N-ethylmaleimide (5M) to 3.456 ml DMSO 100%, and further dilute 3.84 ml of said solution with 3.84 ml DMSO 10%.
DGAT activity in membrane preparations was assayed in 50 mM Tris-HCl (pH 7.4), 150 mM MgCl2, 1 mM EDTA and 0.2% BSA, containing 50 μM DAG, 32 μg/ml PC/PS and 8.4 μM [^3H]-oleoylCoA (at a specific activity of 30 nCi/well) in a final volume of 50 μl in 384-well format using the red shifted Basic Image FlashPlate™ (Perkin Elmer Cat.No. SMP400).
In detail, 10 μl enzyme mix and 10 μl substrate mix were added to 30 μl of assay buffer, optionally in the presence of 1 μl DMSO (blank and controls) or 1 μl of the compound to be tested. This reaction mixture was incubated for 120 minutes at 37° C. and the enzymatic reaction stopped by adding 20 μl of the stop mix. The plates were sealed and the vesicles allowed to settle overnight at room temperature. Plates were centrifuged for 5 minutes at 1500 rpm and measured in Leadseeker. […]

As for `CC(C)CC(NC(=O)OC(C)(C)C)C(=O)Nc1ccc(C2CCN(C(=O)Nc3c(Cl)cccc3Cl)CC2)cc1` (single isomer, unassigned) [Compound 33], the IC50 was 35.5 nM.
In the case of `CC(O)c1cc(Cl)c(NC(=O)N2CCN(c3ccc(NC(=O)CCCc4ccccc4)cc3)CC2)c(Cl)c1` (single isomer, unassigned) [Compound 270], the concentration for half-maximal inhibition (IC50) was 2.14 nM.
On to `CC(O)c1cc(Cl)c(NC(=O)N2CCN(c3ccc(NC(=O)CCCc4ccccc4)cc3)CC2)c(Cl)c1` (single isomer, unassigned) [Compound 271], for which 3.24 nM corresponded to half-maximal inhibition (IC50).
With `CC(=O)NC1(C(=O)Nc2ccc(N3CCN(C(=O)Nc4c(Cl)cccc4Cl)CC3)cc2)CCCC1` [Compound 2], the 50% inhibitory concentration (IC50) was 2880 nM.
To `O=C(CCN(Cc1ccccc1Cl)S(=O)(=O)c1ccccc1[N+](=O)[O-])Nc1ccc(N2CCN(C(=O)Nc3c(Cl)cccc3Cl)CC2)cc1` [Compound 6] belongs 46.8 nM.
Regarding `CCCCCCC(=O)Nc1ccc(N2CCN(C(=O)N(C)c3c(Cl)cccc3Cl)CC2)cc1` [Compound 10], 1100 nM corresponded to half-maximal inhibition (IC50).
The compound `O=C(CCCc1ccccc1)Nc1ccc(N2CCN(C(=O)Nc3c(Cl)cc(OC(F)(F)F)cc3Cl)CC2)cc1` [Compound 13] gave an IC50 of 29.5 nM.
With `COc1ccc(CC(=O)Nc2ccc(N3CCN(C(=O)Nc4c(Cl)cc(OC)cc4Cl)CC3)cc2)cc1` [Compound 15] the figure was 4.57 nM; with `Cc1ccc(CC(=O)Nc2ccc(N3CCN(S(=O)(=O)c4ccccc4C)CC3)cc2)c(C)c1` [Compound 17], 2240 nM; with `C=CCNCC(=O)Nc1ccc(C2CCN(C(=O)Nc3c(Cl)cccc3Cl)CC2)cc1` [Compound 20], 575 nM.
Compound `CC(CN)C(=O)Nc1ccc(C2CCN(C(=O)Nc3c(Cl)cccc3Cl)CC2)cc1` (centres unmarked) [Compound 23] gave a half-maximal inhibitory concentration (IC50) of 2570 nM.
With `O=C(CCCc1ccccc1)Nc1ccc(N2CCN(C(=O)Nc3c(Cl)cc(C(=O)O)cc3Cl)CC2)cc1` [Compound 27] the figure was 33.9 nM.
In turn, `Cc1ccc(CC(=O)Nc2ccc(N3CCN(C(=O)Nc4cccc5ccccc45)CC3)cc2)c(C)c1` [Compound 38] showed a half-inhibitory concentration (IC50) of 490 nM.
With `CC(C)(C)OC(=O)N1CCCC1CC(=O)Nc1ccc(C2CCN(C(=O)Nc3c(Cl)cccc3Cl)CC2)cc1` (centres unmarked) [Compound 39] the figure was 17 nM; with `CN(CC(=O)Nc1ccc(C2CCN(C(=O)Nc3c(Cl)cccc3Cl)CC2)cc1)C(=O)OC(C)(C)C` [Compound 40], 7.76 nM.
With `CC(=O)NCCC(=O)Nc1ccc(N2CCN(C(=O)Nc3c(Cl)cccc3Cl)CC2)cc1` [Compound 44], it took 5130 nM to reach half-maximal inhibition (IC50).
With `COC(=O)c1cc(Cl)c(NC(=O)N2CCN(c3ccc(NC(=O)CCCc4ccccc4)cc3)CC2)c(Cl)c1` [Compound 47] the figure was 135 nM; with `O=C(CCCc1ccccc1)Nc1ccc(N2CCN(C(=O)Cc3c(Cl)cccc3Cl)CC2)cc1` [Compound 52], 35.5 nM.
To `CC(=O)c1cc(Cl)c(NC(=O)N2CCN(c3ccc(NC(=O)CCCc4ccccc4)cc3)CC2)c(Cl)c1` [Compound 53] belongs 46.8 nM.
With `CC(N)c1cc(Cl)c(NC(=O)N2CCN(c3ccc(NC(=O)CCCc4ccccc4)cc3)CC2)c(Cl)c1` (centres unmarked) [Compound 55] the figure was 10.2 nM; with `CC(NCCCO)c1cc(Cl)c(NC(=O)N2CCN(c3ccc(NC(=O)CCCc4ccccc4)cc3)CC2)c(Cl)c1` (centres unmarked) [Compound 57], 10.7 nM; with `COc1ccc(NC(=O)N2CCN(c3ccc(NC(=O)CCCc4ccccc4)cc3)CC2)c(C)c1` [Compound 65], 22.9 nM.
The compound `O=C(CCCc1ccccc1)Nc1ccc(N2CCN(C(=O)Nc3ccccc3C(F)(F)F)CC2)cc1` [Compound 70] had a 50% inhibitory concentration (IC50) of 138 nM.
`COC(=O)c1cccc(NC(=O)N2CCN(c3ccc(NC(=O)CCCc4ccccc4)cc3)CC2)c1C` [Compound 72]: the IC50 was 490 nM.
With `COc1ccc(NC(=O)N2CCN(c3ccc(NC(=O)CCCc4ccccc4)cc3)CC2)c([N+](=O)[O-])c1` [Compound 74] the figure was 174 nM; with `COc1ccc(NC(=O)N2CCN(c3ccc(NC(=O)CCCc4ccccc4)cc3)CC2)c(OC)c1` [Compound 75], 603 nM.
To `COc1ccc(C)cc1NC(=O)N1CCN(c2ccc(NC(=O)CCCc3ccccc3)cc2)CC1` [Compound 76] belongs 5620 nM; to `O=C(CCCc1ccccc1)Nc1ccc(N2CCN(C(=O)Nc3ccccc3[N+](=O)[O-])CC2)cc1` [Compound 80], 589 nM; to `Cc1cccc(NCC(=O)Nc2ccc(C3CCN(C(=O)Nc4c(Cl)cccc4Cl)CC3)cc2)c1` [Compound 97], 49 nM.
Consider `CC1CN(CC(=O)Nc2ccc(C3CCN(C(=O)Nc4c(Cl)cccc4Cl)CC3)cc2)CC(C)O1` (centres unmarked) [Compound 98], for which the half-inhibitory concentration (IC50) is 50.1 nM.
With `CCCCCCCN(C)CC(=O)Nc1ccc(C2CCN(C(=O)Nc3c(Cl)cccc3Cl)CC2)cc1` [Compound 99] the figure was 25.7 nM; with `O=C(CNc1ccccc1)Nc1ccc(C2CCN(C(=O)Nc3c(Cl)cccc3Cl)CC2)cc1` [Compound 100], 87.1 nM; with `CCOC(=O)c1ccc(N2CCCN(CC(=O)Nc3ccc(C4CCN(C(=O)Nc5c(Cl)cccc5Cl)CC4)cc3)CC2)cc1` [Compound 101], 138 nM.
With `O=C(CN1CCN(c2cccc(C(F)(F)F)c2)CC1)Nc1ccc(C2CCN(C(=O)Nc3c(Cl)cccc3Cl)CC2)cc1` [Compound 103] the figure was 398 nM; with `Cc1ccc(C)c(N2CCN(CC(=O)Nc3ccc(C4CCN(C(=O)Nc5c(Cl)cccc5Cl)CC4)cc3)CC2)c1` [Compound 104], 126 nM.
To `Cc1cc(C)cc(N2CCN(CC(=O)Nc3ccc(C4CCN(C(=O)Nc5c(Cl)cccc5Cl)CC4)cc3)CC2)c1` [Compound 105] belongs 170 nM.
`CCc1cccc(N2CCN(CC(=O)Nc3ccc(C4CCN(C(=O)Nc5c(Cl)cccc5Cl)CC4)cc3)CC2)c1` [Compound 106] had a 50% inhibitory concentration (IC50) of 229 nM.
`O=C(CN1CCC(F)(F)CC1)Nc1ccc(C2CCN(C(=O)Nc3c(Cl)cccc3Cl)CC2)cc1` [Compound 107] gave a half-inhibitory concentration (IC50) of 182 nM.
Compound `CC1(C)CCN(CC(=O)Nc2ccc(C3CCN(C(=O)Nc4c(Cl)cccc4Cl)CC3)cc2)CC1` [Compound 108] gave an IC50 of 251 nM.
Compound `CN(C)CC(=O)Nc1ccc(C2CCN(C(=O)Nc3c(Cl)cccc3Cl)CC2)cc1` [Compound 109] had an IC50 of 2340 nM.
With `COCCN(C)CC(=O)Nc1ccc(C2CCN(C(=O)Nc3c(Cl)cccc3Cl)CC2)cc1` [Compound 110] the figure was 1410 nM.

Usually IC50 stands for the point on the concentration scale where inhibition reaches its midpoint.
